Reference: paper PMC5218480 (PLoS ONE, 2017)

System: MV-4-11 cells
Assay: Gene expression microarray analysis (Affymetrix PrimeView) and GSEA
Format: cell-based, human
Parameters: RFU PODN (11730768_x_at) / Fold change /veh PODN (11730768_x_at) / RFU LINC00158 (11744669_a_at) / Fold change /veh LINC00158 (11744669_a_at) / RFU DUSP10 (11751237_a_at) / Fold change /veh DUSP10 (11751237_a_at) / RFU ID3 (11757404_x_at) / Fold change /veh ID3 (11757404_x_at) / RFU PLEKHG5 (11737974_s_at) / Fold change /veh PLEKHG5 (11737974_s_at) / RFU LRRC4B (11730491_at) / Fold change /veh LRRC4B (11730491_at) / RFU GIMAP4 (11747438_a_at) / Fold change /veh GIMAP4 (11747438_a_at) / RFU KRT8 (11758183_x_at) / Fold change /veh KRT8 (11758183_x_at) / RFU CNN1 (11734310_a_at) / Fold change /veh CNN1 (11734310_a_at) / RFU VPS37D (11726825_at) / Fold change /veh VPS37D (11726825_at) / RFU C10orf10 (11716522_x_at) / Fold change /veh C10orf10 (11716522_x_at) / RFU KIR2DL2 /// KIR2DL4 /// KIR2DL5A /// KIR2DL5B /// KIR2DS1 /// KIR2DS2 /// KIR2DS3 /// KIR2DS4 /// KIR3DL3 /// KIR3DL3 /// KIR3DS1 (11738374_at) / Fold change /veh KIR2DL2 /// KIR2DL4 /// KIR2DL5A /// KIR2DL5B /// KIR2DS1 /// KIR2DS2 /// KIR2DS3 /// KIR2DS4 /// KIR3DL3 /// KIR3DL3 /// KIR3DS1 (11738374_at) / RFU C1QL1 (11718748_at) / Fold change /veh C1QL1 (11718748_at) / RFU TMPRSS4 (11747572_a_at) / Fold change /veh TMPRSS4 (11747572_a_at) / RFU HAMP (11756126_x_at) / Fold change /veh HAMP (11756126_x_at) / RFU RNFT2 (11725882_a_at) / Fold change /veh RNFT2 (11725882_a_at) / RFU NR4A2 (11747474_a_at) / Fold change /veh NR4A2 (11747474_a_at) / RFU ABCC12 (11746883_a_at) / Fold change /veh ABCC12 (11746883_a_at) / RFU TMEM136 (11760407_x_at) / Fold change /veh TMEM136 (11760407_x_at) / RFU CLDN22 /// WWC2 (11732394_at) / Fold change /veh CLDN22 /// WWC2 (11732394_at) / RFU HLA-DPB1 (11760878_x_at) / Fold change /veh HLA-DPB1 (11760878_x_at) / RFU SPINT1 (11716480_a_at) / Fold change /veh SPINT1 (11716480_a_at) / RFU GAP43 (11754022_s_at) / Fold change /veh GAP43 (11754022_s_at) / RFU A4GNT (11735810_at) / Fold change /veh A4GNT (11735810_at) / RFU PRB3 (11715151_x_at) / Fold change /veh PRB3 (11715151_x_at) / RFU TUBB4B (11761932_at) / Fold change /veh TUBB4B (11761932_at) / RFU CAPN14 (11732068_a_at) / Fold change /veh CAPN14 (11732068_a_at) / RFU TMCC2 (11721928_a_at) / Fold change /veh TMCC2 (11721928_a_at) / RFU IRGQ (11745062_a_at) / Fold change /veh IRGQ (11745062_a_at) / RFU FAM174B (11720279_a_at) / Fold change /veh FAM174B (11720279_a_at) / RFU TMPRSS4 (11748680_a_at) / Fold change /veh TMPRSS4 (11748680_a_at) / RFU FAM212B (11763350_a_at) / Fold change /veh FAM212B (11763350_a_at) / RFU PLEKHG5 (11743358_a_at) / Fold change /veh PLEKHG5 (11743358_a_at) / RFU ZSCAN30 (11745921_a_at) / Fold change /veh ZSCAN30 (11745921_a_at) / RFU CMKLR1 (11741424_a_at) / Fold change /veh CMKLR1 (11741424_a_at) / RFU LOC101060620 /// MAPK8IP1 (11723275_at) / Fold change /veh LOC101060620 /// MAPK8IP1 (11723275_at) / RFU SPTSSB (11747773_x_at) / Fold change /veh SPTSSB (11747773_x_at) / RFU PRSS12 (11739890_at) / Fold change /veh PRSS12 (11739890_at) / RFU BIN1 (11741810_x_at) / Fold change /veh BIN1 (11741810_x_at) / RFU WNT11 (11732464_a_at) / Fold change /veh WNT11 (11732464_a_at) / RFU C10orf10 (11716521_a_at) / Fold change /veh C10orf10 (11716521_a_at) / RFU C5orf56 (11738089_at) / Fold change /veh C5orf56 (11738089_at) / RFU CYB561 (11721691_x_at) / Fold change /veh CYB561 (11721691_x_at) / RFU ANKRD19P (11752326_a_at) / Fold change /veh ANKRD19P (11752326_a_at) / RFU OR2T12 /// OR2T33 /// OR2T8 (11738714_s_at) / Fold change /veh OR2T12 /// OR2T33 /// OR2T8 (11738714_s_at) / RFU VCAN (11748164_a_at) / Fold change /veh VCAN (11748164_a_at) / RFU JSRP1 (11732532_at) / Fold change /veh JSRP1 (11732532_at) / RFU KRTAP10-11 (11738290_x_at) / Fold change /veh KRTAP10-11 (11738290_x_at) / RFU MYO3A (11730013_a_at) / Fold change /veh MYO3A (11730013_a_at) / RFU EBF3 (11725865_a_at) / Fold change /veh EBF3 (11725865_a_at) / RFU CAMK2N1 (11719241_x_at) / Fold change /veh CAMK2N1 (11719241_x_at) / RFU C5orf56 (11738088_a_at) / Fold change /veh C5orf56 (11738088_a_at) / RFU OLFML3 (11715873_a_at) / Fold change /veh OLFML3 (11715873_a_at) / RFU LOC100653217 /// NTM (11731650_a_at) / Fold change /veh LOC100653217 /// NTM (11731650_a_at) / RFU MAPK11 (11762145_a_at) / Fold change /veh MAPK11 (11762145_a_at) / RFU FIZ1 (11724087_x_at) / Fold change /veh FIZ1 (11724087_x_at) / RFU OASL (11726364_x_at) / Fold change /veh OASL (11726364_x_at) / RFU SOX15 (11748057_x_at) / Fold change /veh SOX15 (11748057_x_at) / RFU CD79A (11719716_a_at) / Fold change /veh CD79A (11719716_a_at) / RFU HIST1H1D (11736915_at) / Fold change /veh HIST1H1D (11736915_at) / RFU CASKIN2 (11723855_a_at) / Fold change /veh CASKIN2 (11723855_a_at) / RFU LOC730098 (11760151_x_at) / Fold change /veh LOC730098 (11760151_x_at) / RFU OR4N2 (11742367_at) / Fold change /veh OR4N2 (11742367_at) / RFU PRRT2 (11749266_a_at) / Fold change /veh PRRT2 (11749266_a_at) / RFU SNX32 (11753110_a_at) / Fold change /veh SNX32 (11753110_a_at) / RFU CDHR5 (11726645_a_at) / Fold change /veh CDHR5 (11726645_a_at) / RFU RCAN1 (11760418_a_at) / Fold change /veh RCAN1 (11760418_a_at) / RFU FAM167A (11723789_a_at) / Fold change /veh FAM167A (11723789_a_at) / RFU FAM26E (11764081_at) / Fold change /veh FAM26E (11764081_at) / RFU ISYNA1 (11749810_s_at) / Fold change /veh ISYNA1 (11749810_s_at) / RFU ACY1 (11761880_at) / Fold change /veh ACY1 (11761880_at) / RFU 11764098_at / Fold change /veh 11764098_at / RFU SAMD14 (11745864_x_at) / Fold change /veh SAMD14 (11745864_x_at) / RFU NPB (11741838_a_at) / Fold change /veh NPB (11741838_a_at) / RFU TMPRSS6 (11731388_a_at) / Fold change /veh TMPRSS6 (11731388_a_at) / RFU KRTAP10-2 (11738614_at) / Fold change /veh KRTAP10-2 (11738614_at) / RFU ARHGAP8 /// PRR5-ARHGAP8 (11727945_x_at) / Fold change /veh ARHGAP8 /// PRR5-ARHGAP8 (11727945_x_at) / RFU KRTAP5-7 /// NADSYN1 (11734609_at) / Fold change /veh KRTAP5-7 /// NADSYN1 (11734609_at) / RFU RASL12 (11751679_a_at) / Fold change /veh RASL12 (11751679_a_at) / RFU CDKN2B (11736163_a_at) / Fold change /veh CDKN2B (11736163_a_at) / RFU PRF1 (11729649_at) / Fold change /veh PRF1 (11729649_at) / RFU, ZNF638 /// ZNF638-IT1 / Fold change vs veh, ZNF638 /// ZNF638-IT1 / RFU, PANK3 / Fold change vs veh, PANK3 / RFU, SH3YL1 / Fold change vs veh, SH3YL1 / RFU, ZEB2 / Fold change vs veh, ZEB2 / RFU, NRIP1 / Fold change vs veh, NRIP1 / RFU, PTTG1IP / Fold change vs veh, PTTG1IP / RFU, CAPN2 / Fold change vs veh, CAPN2 / RFU, MED14 / Fold change vs veh, MED14 / RFU, SNORA58 / Fold change vs veh, SNORA58 / RFU, C1orf63 / Fold change vs veh, C1orf63 / RFU, LRRFIP1 / Fold change vs veh, LRRFIP1 / RFU, NDUFAF7 / Fold change vs veh, NDUFAF7 / RFU, SLC12A2 / Fold change vs veh, SLC12A2 / RFU, IBTK / Fold change vs veh, IBTK / RFU, ESF1 / Fold change vs veh, ESF1 / Fold change vs veh, TMEM50B / RFU, TAOK1 / Fold change vs veh, TAOK1 / RFU, ACBD3 / Fold change vs veh, ACBD3 / RFU, TMA16 / Fold change vs veh, TMA16 / RFU, RWDD3 / Fold change vs veh, RWDD3 / RFU, BCAT1 / Fold change vs veh, BCAT1 / RFU, EDEM3 / Fold change vs veh, EDEM3 / RFU, TMEM33 / Fold change vs veh, TMEM33 / RFU, WDR75 / Fold change vs veh, WDR75 / RFU, AHCTF1 / Fold change vs veh, AHCTF1 / RFU, TFRC / Fold change vs veh, TFRC / RFU, ZDHHC17 / Fold change vs veh, ZDHHC17 / RFU, NOM1 / Fold change vs veh, NOM1 / RFU, ARL8B / Fold change vs veh, ARL8B / RFU, ZBTB11 / Fold change vs veh, ZBTB11 / RFU, TAMM41 / Fold change vs veh, TAMM41 / RFU, KIAA1704 /// LOC100996395 / Fold change vs veh, KIAA1704 /// LOC100996395 / RFU, ING1 / Fold change vs veh, ING1 / RFU, TRMT61B / Fold change vs veh, TRMT61B / RFU, FUBP3 / Fold change vs veh, FUBP3 / RFU, TP53 / Fold change vs veh, TP53 / RFU, TNKS2 / Fold change vs veh, TNKS2 / RFU, ZFP14 / Fold change vs veh, ZFP14 / RFU, ACTR2 / Fold change vs veh, ACTR2 / RFU, PPP3R1 / Fold change vs veh, PPP3R1 / RFU, PIK3R1 / Fold change vs veh, PIK3R1 / RFU, HNRNPA1 / Fold change vs veh, HNRNPA1 / RFU, RNF170 / Fold change vs veh, RNF170 / RFU, ZNF28 / Fold change vs veh, ZNF28 / RFU, RNGTT / Fold change vs veh, RNGTT / RFU, OGT / Fold change vs veh, OGT / RFU, BRD1 / Fold change vs veh, BRD1 / RFU, MARS / Fold change vs veh, MARS / RFU, ZNF655 / Fold change vs veh, ZNF655 / RFU, FAHD1 / Fold change vs veh, FAHD1 / RFU, BDP1 / Fold change vs veh, BDP1 / RFU, LRRCC1 / Fold change vs veh, LRRCC1 / RFU, ARID1A / Fold change vs veh, ARID1A / RFU, ZNF146 / Fold change vs veh, ZNF146 / RFU, ZNF330 / Fold change vs veh, ZNF330 / RFU, GPN3 / Fold change vs veh, GPN3 / RFU, C9orf123 / Fold change vs veh, C9orf123 / RFU, N4BP2L2 / Fold change vs veh, N4BP2L2 / RFU, ARFIP1 / Fold change vs veh, ARFIP1 / RFU, FAM179B / Fold change vs veh, FAM179B / RFU, BCL10 / Fold change vs veh, BCL10 / RFU, UHRF1BP1L / Fold change vs veh, UHRF1BP1L / RFU, BET1 / Fold change vs veh, BET1 / RFU, CNOT2 / Fold change vs veh, CNOT2 / RFU, ZNF268 / Fold change vs veh, ZNF268 / Fold change vs veh, ZNF507 / RFU, DGCR2 / Fold change vs veh, DGCR2 / RFU, WDSUB1 / Fold change vs veh, WDSUB1 / Fold change vs veh, HSP90B1 /// MIR3652 / RFU, ADSS / Fold change vs veh, ADSS / RFU, GK / Fold change vs veh, GK / RFU, ZNF148 / Fold change vs veh, ZNF148 / RFU, TAF9 / Fold change vs veh, TAF9 / RFU, SLC1A5 / Fold change vs veh, SLC1A5 / RFU, SLMO2 / Fold change vs veh, SLMO2 / RFU, ABCC4 / Fold change vs veh, ABCC4 / RFU, LOC101060439 /// RAP1B / Fold change vs veh, LOC101060439 /// RAP1B / RFU, RFX7 / Fold change vs veh, RFX7 / RFU, GTPBP10 / Fold change vs veh, GTPBP10 / RFU, CNEP1R1 / Fold change vs veh, CNEP1R1 / RFU, BIVM-ERCC5 /// ERCC5 / Fold change vs veh, BIVM-ERCC5 /// ERCC5 / RFU, ILF3 / Fold change vs veh, ILF3 / RFU 11762660_at / Fold change /veh 11762660_at / RFU VCAN (11757783_s_at) / Fold change /veh VCAN (11757783_s_at) / RFU DDX43 (11728927_at) / Fold change /veh DDX43 (11728927_at) / RFU KRT8 (11758188_x_at) / Fold change /veh KRT8 (11758188_x_at) / RFU NKD1 (11759106_at) / Fold change /veh NKD1 (11759106_at) / RFU SRD5A1 (11742802_a_at) / Fold change /veh SRD5A1 (11742802_a_at) / RFU TPSAB1 /// TPSB2 (11721975_s_at) / Fold change /veh TPSAB1 /// TPSB2 (11721975_s_at) / RFU GSTM3 (11746129_a_at) / Fold change /veh GSTM3 (11746129_a_at) / RFU IL23R (11737362_x_at) / Fold change /veh IL23R (11737362_x_at) / RFU TMEM51 (11727254_a_at) / Fold change /veh TMEM51 (11727254_a_at) / RFU PIWIL2 (11732686_x_at) / Fold change /veh PIWIL2 (11732686_x_at) / RFU ORM1 (11744905_x_at) / Fold change /veh ORM1 (11744905_x_at) / RFU CCDC152 (11743942_at) / Fold change /veh CCDC152 (11743942_at) / RFU ECM1 (11717891_a_at) / Fold change /veh ECM1 (11717891_a_at) / RFU IL23R (11748794_a_at) / Fold change /veh IL23R (11748794_a_at) / RFU TNFAIP8L3 (11732012_x_at) / Fold change /veh TNFAIP8L3 (11732012_x_at) / RFU MBOAT4 (11741988_at) / Fold change /veh MBOAT4 (11741988_at) / RFU 11764193_at / Fold change /veh 11764193_at / RFU TMEM53 (11763286_at) / Fold change /veh TMEM53 (11763286_at) / RFU MAGEB2 (11727129_at) / Fold change /veh MAGEB2 (11727129_at) / RFU TMEM200A (11744735_a_at) / Fold change /veh TMEM200A (11744735_a_at) / RFU CCDC152 (11751479_a_at) / Fold change /veh CCDC152 (11751479_a_at) / RFU FAM211A (11726209_a_at) / Fold change /veh FAM211A (11726209_a_at) / RFU RGS16 (11746705_a_at) / Fold change /veh RGS16 (11746705_a_at) / RFU VCAN (11755009_s_at) / Fold change /veh VCAN (11755009_s_at) / RFU RHOB (11743442_s_at) / Fold change /veh RHOB (11743442_s_at) / RFU RGS16 (11720943_a_at) / Fold change /veh RGS16 (11720943_a_at) / RFU RGS16 (11720944_at) / Fold change /veh RGS16 (11720944_at) / RFU, VPS4B / Fold change vs veh, VPS4B / RFU, CREB1 / Fold change vs veh, CREB1 / RFU, DNAJC13 / Fold change vs veh, DNAJC13 / RFU, GNAQ / Fold change vs veh, GNAQ / RFU, CDK5R1 / Fold change vs veh, CDK5R1 / RFU, ZRANB3 / Fold change vs veh, ZRANB3 / RFU, CUL4A / Fold change vs veh, CUL4A / RFU, CCNY / Fold change vs veh, CCNY / RFU, UFL1 / Fold change vs veh, UFL1 / RFU, COG3 / Fold change vs veh, COG3 / RFU, DIAPH2 / Fold change vs veh, DIAPH2 / RFU, SKA2 / Fold change vs veh, SKA2 / RFU, AFF3 / Fold change vs veh, AFF3 / RFU, LMF1 / Fold change vs veh, LMF1 / RFU, IPO11 / Fold change vs veh, IPO11 / RFU, DFFB / Fold change vs veh, DFFB / RFU, FOXP1 / Fold change vs veh, FOXP1 / RFU, CARD8 / Fold change vs veh, CARD8 / RFU, STRN3 / Fold change vs veh, STRN3 / RFU, ADK / Fold change vs veh, ADK / RFU, RASSF2 / Fold change vs veh, RASSF2 / RFU, WIPF1 / Fold change vs veh, WIPF1 / RFU, LARP1B / Fold change vs veh, LARP1B / RFU, RASA1 / Fold change vs veh, RASA1 / RFU, RB1 / Fold change vs veh, RB1 / RFU, PPFIA1 / Fold change vs veh, PPFIA1 / RFU, MAT2A / Fold change vs veh, MAT2A / RFU, CCT5 / Fold change vs veh, CCT5 / RFU, WDR92 / Fold change vs veh, WDR92 / RFU, CUX1 / Fold change vs veh, CUX1 / RFU, TTC7A / Fold change vs veh, TTC7A / RFU, TMEM135 / Fold change vs veh, TMEM135 / RFU, DEPTOR / Fold change vs veh, DEPTOR / RFU, CPM / Fold change vs veh, CPM / RFU, DNAJB6 / Fold change vs veh, DNAJB6 / RFU, CACNA2D3 / Fold change vs veh, CACNA2D3 / RFU, DTX4 / Fold change vs veh, DTX4 / RFU, TFCP2 / Fold change vs veh, TFCP2 / RFU, GMCL1 /// GMCL1P1 / Fold change vs veh, GMCL1 /// GMCL1P1 / RFU, AEBP2 / Fold change vs veh, AEBP2 / RFU, SNHG1 /// SNORD22 /// SNORD25 /// SNORD26 /// SNORD27 /// SNORD28 /// SNORD29 /// SNORD31 / Fold change vs veh, SNHG1 /// SNORD22 /// SNORD25 /// SNORD26 /// SNORD27 /// SNORD28 /// SNORD29 /// SNORD31 / Fold change (Aza/veh), C12orf56 (ProbeSet 11735607_a_at) / Fold change (ACY-1035/veh), C12orf56 (ProbeSet 11735607_a_at) / Fold change (Aza/veh), FGFR1OP (ProbeSet 11751329_s_at) / Fold change (ACY-1035/veh), FGFR1OP (ProbeSet 11751329_s_at) / Fold change (Aza/veh), VPS36 (ProbeSet 11739960_a_at) / Fold change (ACY-1035/veh), VPS36 (ProbeSet 11739960_a_at) / RFU SYPL1 (11715823_x_at) / Fold change /veh SYPL1 (11715823_x_at) / RFU IGFBP7 (11715501_s_at) / Fold change /veh IGFBP7 (11715501_s_at) / RFU REEP3 (11722064_at) / Fold change /veh REEP3 (11722064_at) / RFU IGLL1 (11728026_x_at) / Fold change /veh IGLL1 (11728026_x_at): dose or concentration left out as unconfirmed
Settings: MV-4-11 cells, 48 hours

In the case of `Nc1ncn([C@@H]2O[C@H](CO)[C@@H](O)[C@H]2O)c(=O)n1` [azacitidine], the “RFU CAPN14 (11732068_a_at)” value is reported as 10.94 RFU.
